Laboratory results taken from the NIST ThermoML archive (doi:10.1016/j.jct.2011.02.008).

Experiment: xn = mol fraction of the nth substance listed
Conditions: Liquid, Vibrating tube method

COC(=O)c1ccccc1 [methyl benzoate] + CCCCCCO
mass density [kg/m3]
Conditions | x1 = 0.1004 | x1 = 0.2007 | x1 = 0.3007 | x1 = 0.4013 | x1 = 0.5005 | x1 = 0.6009 | x1 = 0.7 | x1 = 0.8008 | x1 = 0.9009
288.15 K, 40000 kPa | – | – | – | – | – | 1007.2 | 1033.8 | 1060.9 | 1087.8
288.15 K, 45000 kPa | 875 | 901.8 | 929 | 956 | 982.8 | 1009.8 | 1036.3 | 1063.4 | 1090.3
288.15 K, 50000 kPa | 877.5 | 904.4 | 931.5 | 958.5 | 985.3 | 1012.3 | 1038.8 | 1065.9 | 1092.8
288.15 K, 55000 kPa | 879.9 | 906.8 | 933.9 | 961 | 987.8 | 1014.7 | 1041.3 | 1068.3 | 1095.2
288.15 K, 60000 kPa | 882.3 | 909.2 | 936.2 | 963.2 | 990 | 1017 | 1043.7 | 1070.6 | 1097.5
298.15 K, 100 kPa | 841.5 | 868.2 | 895.1 | 922 | 948.6 | 975.5 | 1002 | 1029.1 | 1056
298.15 K, 1000 kPa | 842.2 | 868.8 | 895.7 | 922.6 | 949.2 | 976.1 | 1002.6 | 1029.7 | 1056.6
298.15 K, 5000 kPa | 844.9 | 871.6 | 898.4 | 925.3 | 951.9 | 978.8 | 1005.3 | 1032.3 | 1059.2
298.15 K, 10000 kPa | 848.3 | 874.9 | 901.7 | 928.5 | – | – | – | – | –
